From article PMC9578339, “Deracemisation and stereoinversion by a nanoconfined bidirectional enzyme cascade: dual control by electrochemistry and selective metal ion activation” (Chemical Communications (Cambridge, England), 2022)

Target: T1, LK (R-selective alcohol dehydrogenase) (Lentilactobacillus kefiri, UniProt Q6WVP7)
T1 construct: gene adh; homo-tetramer; Mg2+ dependent; co-entrapped with FNR in porous ITO electrode
T1 sequence (Q6WVP7 1-252): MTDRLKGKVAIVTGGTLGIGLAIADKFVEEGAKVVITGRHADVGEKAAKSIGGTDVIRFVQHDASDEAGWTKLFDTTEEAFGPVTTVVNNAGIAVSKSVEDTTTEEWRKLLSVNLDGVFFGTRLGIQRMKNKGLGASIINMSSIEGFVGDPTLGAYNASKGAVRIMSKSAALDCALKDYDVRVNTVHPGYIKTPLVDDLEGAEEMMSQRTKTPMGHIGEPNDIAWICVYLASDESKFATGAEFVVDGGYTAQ
Assay: chronoamperometry on FNR/ITO electrode, chiral GC
Type: biochemical
Conditions: pH 9.0, 50 mM TAPS, 25 °C, 5 mM Mg2+, 20 uM NADP+; enzyme entrapped with FNR and W110V in ITO electrode

Compound: C[C@@H](O)CCc1ccccc1 [(R)-4-phenyl-2-butanol]
- chronoamperometry on FNR/ITO electrode, chiral GC: conversion of (R)-4-phenyl-2-butanol to 4-phenyl-2-butanone by LK
